Reference: ChEMBL document CHEMBL4130595, “Antitubercular Nitroimidazoles Revisited: Synthesis and Activity of the Authentic 3-Nitro Isomer of Pretomanid” (ACS Med Chem Lett, 2017)
In brackets after ≈: the same amount, converted by molar mass.

Tests used:
[1] = system: Mycobacterium tuberculosis; assay: Antitubercular activity against Mycobacterium tuberculosis H37Rv measured after 7 days under aerobic condition by alamar blue assay; format: functional; settings: 168 h
[2] = system: Mycobacterium tuberculosis; assay: Antitubercular activity against Mycobacterium tuberculosis H37Rv ATCC 27294 incubated for 10 days under low oxygen condition followed by second incubation under aerobic condition for 28 hrs by LORA; format: functional
[3] = system: Vero; assay: Cytotoxicity against African green monkey Vero cells after 72 hrs by MTS/PMS assay; format: cell-based; settings: Chlorocebus sabaeus

Structure (SMILES)	MIC [1] [µM]	MIC [2] [µM]	IC50 [3] [µM]
Cc1cc(CO[C@@H]2COc3nc([N+](=O)[O-])cn3C2)ccc1OC(F)(F)F	0.063 (≈ 0.0235 µg/mL)	1 (≈ 0.373 µg/mL)	> 128
O=[N+]([O-])c1cnc2n1C[C@H](OCc1ccc(OC(F)(F)F)cc1)CO2	> 128	> 128	> 128
O=[N+]([O-])c1cnc2n1C[C@H](O)CO2	> 128	> 128	> 128
COc1nc2ccc(Br)cc2cc1[C@@H](c1ccccc1)[C@@](O)(CCN(C)C)c1cccc2ccccc12 [BEDAQUILINE]	0.07 (≈ 0.0389 µg/mL)	0.11 (≈ 0.0611 µg/mL)	> 10
NNC(=O)c1ccncc1 [ISONIAZID]	0.34 (≈ 0.0466 µg/mL)	> 128	–
CC(=O)NC[C@H]1CN(c2ccc(N3CCOCC3)c(F)c2)C(=O)O1 [LINEZOLID]	2.9 (≈ 0.978 µg/mL)	2.8 (≈ 0.945 µg/mL)	–
Cc1ncc([N+](=O)[O-])n1CCO [METRONIDAZOLE]	> 512	79 (≈ 13.5 µg/mL)	–
COc1c(N2C[C@@H]3CCCN[C@@H]3C2)c(F)cc2c(=O)c(C(=O)O)cn(C3CC3)c12 [MOXIFLOXACIN]	0.42 (≈ 0.169 µg/mL)	> 128	–
CO[C@H]1/C=C/O[C@@]2(C)Oc3c(C)c(O)c4c(O)c(c(/C=N/N5CCN(C)CC5)c(O)c4c3C2=O)NC(=O)/C(C)=C\C=C\[C@H](C)[C@H](O)[C@@H](C)[C@@H](O)[C@@H](C)[C@H](OC(C)=O)[C@@H]1C [RIFAMPIN]	0.049 (≈ 0.0403 µg/mL)	0.64 (≈ 0.527 µg/mL)	> 100
